Measurements reported in patent publication US20100215747A1, “NANOPARTICLES COMPRISING IONIZABLE, POORLY WATER SOLUBLE CELLULOSIC POLYMERS” (priority 2007, published 2010).
Converted amounts (≈) assume the structure as drawn. Read-outs that look alike come from different tables or passages of the source.

Legend:
[1] = Solubility of drug in water; type: physicochemical
Log P value of drug = type: physicochemical; details: octanol/water
Description: The first property of hydrophobic drugs is that they are extremely hydrophobic. Log P, defined as the base 10 logarithm of the ratio of the drug solubility in octanol to the drug solubility in water, is a widely accepted measure of hydrophobicity. By “extremely hydrophobic” is meant that the Log P value of the drug is at least 4.0, preferably at least 4.5, and most preferably at least 5.0. Log P may be measured experimentally or calculated using methods known in the art. When using a calculated value for Log P, the highest value calculated using any generally accepted method for calculating Log P is used. Calculated Log P values are often referred to by the calculation method, such as C log P, A log P, and M log P. The Log P may also be estimated using fragmentation methods, such as Crippen's fragmentation method (27 J. Chem. Inf. Comput. Sci. 21 (1987)); Viswanadhan's fragmentation method (29 J. Chem. Inf. Comput. Sci. 163 (1989)); or Broto's fragmentation method (19 Eur. J. Med. Chem.-Chim. Theor. 71 (1984). Preferably the Log P value is calculated by using the average value estimated using Crippen's, Viswanadhan's, and Broto's fragmentation methods.

[2] = Description: By “solids concentration” is meant the amount of solid polymer added to the PBS solution to measure the solubility of the polymer in the PBS solution. An appropriate PBS solution is an aqueous solution comprising 20 mM sodium phosphate (Na2HPO4), 47 mM potassium phosphate (KH2PO4), 87 mM NaCl, and 0.2 mM KCl, adjusted to pH 6.5 with NaOH. A test to determine whether the polymer is poorly water soluble may be performed as follows. The polymer is initially present in bulk form with average particle sizes of greater than 1 micron. The solid polymer alone is added to a PBS solution to achieve a solids concentration of 0.2 mg/mL polymer in the PBS solution. The PBS solution is stirred for approximately 1 hour at room temperature. Next, a nylon 0.45 μm filter is weighed, and the polymer solution is filtered. The filter is dried overnight at 40° C., and weighed the following morning. The amount of polymer dissolved is calculated from the amount of polymer added to the PBS solution minus the amount of polymer remaining on the filter (mg).
The degree of water solubility of Polymers 2, 3, and 5 were evaluated as follows. […] The amount of dissolved polymer was calculated from amount of polymer added to the PBS solution minus the amount of polymer remaining on the filter (mg). […]

Compound | solubility ([1]; read-out: solubility in water) | logP (Log P value of drug) | Solubility (mg/mL) at pH 6.5 [2] | also measured
Cc1ccc(-c2cc(C(F)(F)F)nn2-c2ccc(S(N)(=O)=O)cc2)cc1 [Drug 1, 4-[5-(4-methylphenyl)-3-(trifluoromethyl)-1H-pyrazol-1-yl]benzenesulfonamide] | ~3.5 µg/mL (≈ 9.18 µM) |  |  | 
CC[C@@H]1C[C@H](N(Cc2cc(C(F)(F)F)cc(C(F)(F)F)c2)C(C)=O)c2cc(C(F)(F)F)ccc2N1C(=O)OC(C)C [Drug 2, [2R,4S]-4-[acetyl-(3,5-bis-trifluoromethyl-benzyl)-amino]-2-ethyl-6-trifluoromethyl-3,4-dihydro-2H-quinoline-1-carboxylic acid isopropyl ester] | < 0.01 µg/mL |  |  | 
O=C1NC(=O)C(c2ccccc2)(c2ccccc2)N1 [Drug 3, diphenylhydantoin] |  | 2.47 |  | solubility ([1]; pH 7.5, aqueous buffer, read-out: solubility in water at pH 7.5): ~22 µg/mL (≈ 87.2 µM)
O=C1Cc2cc(CCN3CCN(c4nsc5ccccc45)CC3)c(Cl)cc2N1 [Drug 4] | ~0.15 µg/mL (≈ 0.363 µM) | ~3.6 |  | 
carboxy methyl ethyl cellulose [CP6] |  |  | 0.2 mg/mL | 
cellulose acetate trimellitate [CP5] |  |  | 0.2 mg/mL | 
